Measurements: US9265268B2, “Method of handling bananas” (priority 2009, dated 2016)

Columns and labels:
[1] = test system: bananas; assay: Example 2C: evaluation process C (22° C. after MCP); crown mold and crown rot; format: in vivo, Musa; conditions: 7 days in bag at approx. 22° C., rating 0-3
Excerpt: Bananas may be inspected for the incidence of crown mold. Crown mold is observed and given a numerical rating as follows: 0 (apparently healthy and disease-free fruit); 1 (mycelia not easily detectable with naked eye, but obvious slight disease is visible on the crown); 2 (presence of some visible mycelia on the crown and moderate disease damage on the crown; 3 (clearly visible mycelia on the crown with severe disease damage on the crown).
Bananas may be inspected for the incidence of crown rot. When disease damage is apparent but no fungus is visible, crown rot is reported, with the degree of damage assessed as follows: 0 (apparently healthy and disease-free fruit); 1 (obvious slight disease is visible on the crown); 2 (moderate disease damage on the crown; 3 (severe disease damage on the crown).
Bananas were harvested at 13 weeks of age. Fruit bunches were separated into hands, then washed, and excess latex was removed in chlorinated water tanks using standard commercial practices. The washed hands of bananas were further broken into clusters and treated with fungicide. Clusters were placed into plastic bags; each bag held approximately 1.4 kg (3 lbs) of bananas. The bananas remained in these bags until they were removed for evaluation (see below).
At day 5 at approximately 4 pm, the bananas had reached color stage 2.5 to 3.5. Treatment groups PE-3-C, PE-10-C, MAP-3, and MAP-10 were then exposed to 1-MCP overnight at the concentrations shown above.
Some of the bananas from each group described in Example 2 were evaluated by process “C” as follows: After treatment groups PE-3-C, PE-10-C, MAP-3, and MAP-10 received exposure to 1-MCP, the bananas remained in their bags and were held at approximately 22° C. The bananas were inspected daily while they remained in the bags.
After 7 days at approximately 22° C., results were as follows: […]

[2] = test system: bananas; assay: Example US-1: bananas transferred to MAP after shipment; format: in vivo, Musa
Excerpt: Bananas were harvested and shipped in to Ephrata, Pa., using standard commercial practices, in standard commercial shipping bags. For shipping, bags were placed in cartons; each carton held sufficient bags so that there were approximately 18.1 kg (40 lb.) of bananas in each carton.
After arrival in Ephrata, Pa., bananas were removed from the bags in which they were shipped and placed into new bags, which were either MAP (as described above) or T-bags (as described above). The new bags held approximately 1.3 kg (3 lb.) each. The new bags were twisted and secured shut. Bags were exposed to the 5-day ripening method used in Example 2 above. After ripening, the bags were transported to Spring House, Pa. in a refrigerated truck. Upon arrival, color stage of the bananas was 3.5 to 4.5. Bags were then placed into sealed tents for 12 hours at 13.3° C. […] After that 12-hour period, samples were aired for 1 hour and then kept in place at 13.3° C. (56° F.) for 10 hours and then transferred to an evaluation room, which was maintained at 17.8° C. (64° F.).
All bags remained in the evaluation room for 8 days. Bananas were visually inspected each day, whether they were still in bags or not. The bags were divided into three groups: • A. remained in the bags for 3 days, then removed from the bags for the remaining 5 days; • B. remained in the bags for 4 days, then removed from the bags for the remaining 4 days. • C. remained in the bags for 8 days, then removed on the eighth day for evaluation.

[3] = MAP-10: MAP bag, 1000 ppb 1-MCP
[4] = PE-10-C: PE bag, 1000 ppb 1-MCP

## CC1=CC1 [1-MCP, 1-methylcyclopropene]
[1]; MAP-3: MAP bag, 300 ppb 1-MCP
  Crown Mold: 1.04
  Crown Rot: 1.18
[1]; [3]
  Crown Mold: 1.00
  Crown Rot: 1.18
[1]; PE-3-C: PE bag, 300 ppb 1-MCP
  Crown Mold: 1.50
  Crown Rot: 1.72
[1]; [4]
  Crown Mold: 1.09
  Crown Rot: 1.27
[2]; 1000 ppb versus 300 ppb 1-MCP in the same type of bag
  development of color and sugar spots: slower development of color and sugar spots
[2]; MAP with non-zero 1-MCP
  extension of shelf life, compared to T bags with no 1-MCP: 8 days
[2]; MAP, 300 ppb or 1000 ppb 1-MCP versus MAP with zero 1-MCP
  development of color and sugar spots after removal from bags: slower development of color and sugar spots
[2]; MAP, 300 ppb or 1000 ppb 1-MCP versus T-bags
  development of color and sugar spots: much slower development of color and sugar spots
[2]; T-bags, 300 ppb or 1000 ppb 1-MCP versus zero
  development of color and sugar spots: slower development of color and sugar spots
